Data reported in patent US11707557B2, “Compositions and devices incorporating water-insoluble therapeutic agents and methods of the use thereof” (COOK MEDICAL TECHNOLOGIES LLC, priority 2014, dated 2023).
≈ marks a conversion by molar mass, not a printed value.

Key:
[1] = Release from PLGA microspheres +/- EGCG or tannic acid; assay type: physicochemical; conditions: over a 10 days period
Protocol: Method: The method involved pipetting a solution of the polymer PLGA (usually 20% w/v) and drug (usually 5% w/w to polymer) and EGCG (e.g. 20% w/w/ to polymer) in dichlomethane (DCM) (5 ml) into 100 ml of 2.5% PVA solution in water stirring at 450 rpm. The suspension was left stirring for 2 hours and the microspheres washed 4 times in distilled water. The microspheres were then dried under vacuum for 2 days. Drug encapsulation was measured by dissolving a known weight of microspheres in 1 ml of dichloromethane followed by immediate dilution to 10 ml in 60:40 acetonitrile/water. The amount of drug or EGCG in the top and bottom phase of this solution was measured using HPLC methods (mobile phase 58:37:5 Acetonitrile:water:methanol. 1 ml per min flow on a c18 column with detection at 232 nm)
Tannic acid: An alternative method was used, termed a water-in oil-in water emulsion. […] This forms a primary emulsion of water droplets in the PLGA solution stabilized by Span. When this emulsion was pipetted into the PVA solution the microspheres formed well. […] The microspheres were a light brown in color indicative of tannic acid encapsulation.
Methods: In these studies, 10 mg of microspheres were suspended in 2 ml of phosphate buffered saline (pH 7.4 10 mM phosphate) in microcentrifuge tubes and tumbled at 8 rpm at 37° C. The tubes were then centrifuged at 12000×g and the supernatants collected for drug analysis by HPLC. 2 ml of fresh PBS was then placed on top of the microspheres which were returned to the 37° C. oven for continued incubation with tumbling.
At the end of the study the residual mass of polymer and drug was dissolved in DCM and drug extracted into 60:40 acetonitrile:water to measure residual drug. The amounts of residual drug were 89% for plga alone (at 31 days), 16% for EGCG and 8% for tannic acid (both at 51 days) as expressed as a % of the original loading.

[2] = Solubility of EGCG and tannic acid in propylene glycol and PEG 300
Source text: EGCG and tannic acid are fairly soluble in alcohol and acetonitrile. […] These solutions become more viscous and paste-like as the percentage of gallate in solution is increased. When non-drug containing pastes were placed in water, the contents of the paste (gallate, PG or PEG), which are all water soluble, dissolved away.

[3] = Drug concentrations obtained using EGCG at 50 mg per ml (microscopic check for particulates); assay type: physicochemical; conditions: for Drug Concentration: 1 ml of water; for Particulates present: under a microscope
Protocol: EGCG at 50 mg/ml and drug at approximately 250 micrograms per ml were dissolved in the listed solvent and dried down in a test tube under nitrogen. 1 ml of water was added, followed by vortexing. The solutions were examined for particulate matter under a microscope. If no particulates were present, the process was repeated with a higher drug amount. All the tested drugs remained in solution at the listed concentrations except for nystatin and hesperidin.

[4] = Lidocaine release from propylene glycol:gallate pastes into PBS; assay type: physicochemical
Protocol: For each formulation, 100 mg of paste was placed in the base of a round bottomed 15 mL glass test tube. […] At the start of the release experiment, 10 ml of PBS was added and the tubes left for various time periods, after which all 10 mL of the release media was removed for drug analysis. The residual mass was observed from the top, and the drop in diameter from 8 mm noted as a semi-quantitative assessed of paste pellet degradation. It was not possible to measure the degradation fully quantitatively at that time, as the pellets were fragile and water-swollen. After a few days the pellets became less fragile, and were removed from the tubes and dried on tissue paper before weighing. The drop in weight from 100 mg was then noted as the % degradation and compared with the visual observations.

[5] = Solubility of drug in EGCG or tannic acid solutions (dried down, PBS or water added, 0.22 micron filtered, HPLC or absorbance)
Protocol: PBS (EGCG) or water (tannic acid) was added and the final solution filtered through a 0.22 micron filter to remove any particulates. The solutions were analyzed for drug concentration using HPLC.
PBS (EGCG) or water (tannic acid) was added and the final solution filtered through a 0.22 micron filter to remove particulates. The solution was then analyzed for drug concentration using absorbance spectroscopy at 450 nm.
PBS (EGCG) or water (tannic acid) was added and the final solution was filtered through a 0.22 micron filter to remove any particulates and the solution was analyzed for drug concentration using HPLC.
PBS (EGCG) or water (tannic acid) was added and the final solution filtered through a 0.22 micron filter to remove any particulates and the solution was analyzed for drug concentration using HPLC.
PBS (EGCG) or water (Tannic acid) was added and the final solution was filtered through a 0.22 um filter to remove any particulates and the solution was analyzed for drug concentration using HPLC.
Method: drug and EGCG or tannic acid were dried down from acetonitrile (or methanol for tannic acid) solutions at various drug to EGCG or tannic acid ratios. PBS (EGCG) or water (Tannic acid pH adjusted to 7) was added and the final solution was filtered through a 0.22 um filter to remove any particulates and the solution was analyzed for drug concentration using HPLC methods.

pig skin = tested on: pig skin
Protocol: Various gallate-containing drug formulations were prepared and applied to ex vivo pig skin samples. Fresh pig skin was obtained from a local butcher, processed within three hours and then frozen. For experiments, the skin was slowly thawed, excess fat removed from the base, and cut into 1×2 cm squares. These squares were mounted and clamped on Franz diffusion cells, which kept the tissue moist and isolated and exposed a 6 mm diameter of the upper skin surface for the application of a drug loaded formulation. Skin samples were then frozen and later cryosectioned in 50 μm slices. The drug in the slices was extracted and measured by HPLC or radioactive doping methods. A drug depth profile was then established for each drug.
1. Formulations containing a drug and a gallate. The drugs were dissolved in ethanol at various concentrations along with either EGCG or TA (500 mg/mL). Each solution was pipetted into 6×5 mm diameter aluminum cups (approximately 3 mm in height) by filling and allowing the ethanol to evaporate at 50° C. until all the solution was used up (80 mg per cup).
2. Formulations containing a drug, propylene glycol (“PG”) and a gallate. 300 mg of propylene glycol was mixed with 200 mg of EGCG or TA until dissolved. Various amounts of drug were added to this mixture and dissolved. 80 mg of the resulting viscous solution was weighed into 6×5 mm aluminum cups.
3. Control Formulations. Control formulations were prepared using Glaxal base and Plogel. Glaxal base is a cream used by compounding pharmacists to manufacture topical formulations of drugs. Plogel is an alternative used for dermal formulations. […] Drug was added to a known weight of Glaxal or Plogel and levigated to produce a standard drug dispersion. These formulations were prepared the evening before the experiment. For some drugs, radioactive drug (where available) was also added as a doping additive to facilitate quantitation in tissues.
Eutectics: In some cases, gallate containing compounds and drugs were formulated in eutectic mixtures. These included a 60:40 (% w/w) mixture of menthol with ibuprofen. These agents acted as a carrier for retinoic acid, which was then dissolved in this liquid. The 3-drug eutectic/solution was then blended into the CMC/poloxamer emulsion containing EGCG (2.5%). […] The emulsion was stabilized with poloxamer.
Example 29. Pig skin studies. Aluminum cups containing drug formulations were inverted on top of the pig skin in the Franz diffusion cell so that the formulation contents were in contact with the skin. […]
Analysis. […] The amount of drug in each group of skin sections was then determined using HPLC methods, or by radioactivity counting on a liquid scintillation counter. The amount of drug in each group of skin sections was expressed as μg/g or mg/g of tissue.

For `O=C(O[C@@H]1Cc2c(O)cc(O)cc2O[C@@H]1c1cc(O)c(O)c(O)c1)c1cc(O)c(O)c(O)c1` [EGCG, epi gallo catechin gallate], the “release of EGCG or Tannic acid from PLGA microspheres” value [1] was “approximately 45%”, the “solubility in PEG 300 liquid” value [2] was 25 % w/w and the “solubility in propylene glycol” value [2] was “higher than 50 % w/w”.
For `CC(C)(C)[C@]1(O)CC2OC(=O)CC23C(=O)OC2OC(=O)[C@H](O)C231` (some centres unmarked) [bilobalide], the Visual appearance [3] was “clear solution”, the “Drug Concentration” value [3] was 250 microgram/ml and the Particulates present [3] was “no”.
In the case of `CC[C@@]1(O)C(=O)OCc2c1cc1n(c2=O)Cc2cc3ccccc3nc2-1` [camptothecin], the Visual appearance [3] is reported as “clear”, the “Drug Concentration” value [3] is reported as 50 microgram/ml and the Particulates present [3] is reported as “no”.
For `CC1C(=O)OC2C(O)C34C5CC(C(C)(C)C)C36C(OC(=O)C6O)OC4(C(=O)O5)C12O` (centres unmarked) [ginkgolide B], the Visual appearance [3] was “clear solution”, the “Drug Concentration” value [3] was 250 microgram/ml and the Particulates present [3] was “no”.
For `COc1ccc([C@@H]2CC(=O)c3c(O)cc(O[C@@H]4O[C@H](CO[C@@H]5O[C@@H](C)[C@H](O)[C@@H](O)[C@H]5O)[C@@H](O)[C@H](O)[C@H]4O)cc3O2)cc1O` [hesperedin], the Visual appearance [3] was “almost clear”, the “Drug Concentration” value [3] was 125 microgram/ml and the Particulates present [3] was “very”.
With `COc1ccc([C@@H]2CC(=O)c3c(O)cc(O)cc3O2)cc1O` [hesperetin] the Visual appearance [3] was “clear solution”, the “Drug Concentration” value [3] was 250 microgram/ml and the Particulates present [3] was “no”.
With `COc1ccc2c(c1)c(CC(=O)O)c(C)n2C(=O)c1ccc(Cl)cc1` [indomethacin] the Visual appearance [3] was “clear solution”, the “Drug Concentration” value [3] was 250 microgram/ml and the Particulates present [3] was “no”.
For `CCN(CC)CC(=O)Nc1c(C)cccc1C` [lidocaine], the “period of drug release” value ([4]; EGCG:propylene glycol pastes, 20% drug loading) was 2-4 weeks, the drug release ([4]; all EGCG:propylene glycol pastes, 5% drug loading, in approximately 2 days) was ~100% and the “period of drug release” value ([4]; tannic acid:propylene glycol pastes, 5% drug loading) was ~7 days. The “period of drug release” value ([4]; tannic acid:propylene glycol pastes, 20% drug loading) was 4-5 weeks.
In the case of `C[C@@H]1[C@H](O)[C@@H](C)/C=C/C=C/CC/C=C/C=C/C=C/C=C/C(O[C@H]2O[C@H](C)[C@@H](O)[C@H](N)[C@@H]2O)CC2O[C@](O)(CC(O)C(O)CCC(O)CC(O)CC(O)CC(=O)O[C@H]1C)CC(O)C2C(=O)O` (some centres unmarked) [nystatin], the Visual appearance [3] is reported as “clear solution”, the “Drug Concentration” value [3] is reported as 125 microgram/ml and the Particulates present [3] is reported as “very”.
In the case of `CC1=CC(=O)c2c(O)cccc2C1=O` [plumbagin], the Visual appearance [3] is reported as “clear”, the “Drug Concentration” value [3] is reported as 250 microgram/ml and the Particulates present [3] is reported as “no”.
In the case of `O=c1c(O)c(-c2ccc(O)c(O)c2)oc2cc(O)cc(O)c12` [quercetin], the Visual appearance [3] is reported as “clear”, the “Drug Concentration” value [3] is reported as 250 microgram/ml and the Particulates present [3] is reported as “no”.
For `CO[C@H]1C[C@@H]2CC[C@@H](C)[C@@](O)(O2)C(=O)C(=O)N2CCCC[C@H]2C(=O)O[C@H]([C@H](C)C[C@@H]2CC[C@@H](O)[C@H](OC)C2)CC(=O)[C@H](C)/C=C(\C)[C@@H](O)[C@@H](OC)C(=O)[C@H](C)C[C@H](C)/C=C/C=C/C=C/1C` [rapamycin], the solubility ([5]; EGCG solution (200 mg/ml) in PBS, aqueous with cosolvent or surfactant or cyclodextrin, thermodynamic from solid, drug concentration solubilised at maximum EGCG concentration, EGCG 200 mg per ml, PBS) was ~300 µg/mL (≈ 328 µM), the “effect of temperature on solubility” value ([5]; EGCG solutions) was “little effect of temperature” and the “stability of EGCG solutions of the drug” value ([5]; EGCG solutions, 24 hours) was “stable for 24 hours”. The solubility ([5]; tannic acid solution (500 mg/ml) in water, aqueous with cosolvent or surfactant or cyclodextrin, thermodynamic from solid, drug concentration solubilised at maximum tannic acid concentration, tannic acid 500 mg/ml, water) was ~1500 µg/mL (≈ 1640 µM), the “stability of tannic acid solutions of the drug” value ([5]; tannic acid solutions, 24 hours) was “stable for 24 hours” and the “effect of temperature on solubility” value ([5]; tannic acid solutions, 37° C. or 50° C. compared to 23° C.) was “no effect of temperature”. For the same compound, the solubility ([5]; water, free solubility in water, no EGCG or tannic acid) was 2 to 3 µg/mL (≈ 2.19 to 3.28 µM).
In the case of `CC1=C(/C=C/C(C)=C/C=C/C(C)=C/C(=O)O)C(C)(C)CCC1` [retinoic acid], the “drug uptake by pig skin relative to controls” value (pig skin) is reported as “higher levels of uptake as compared to the control formulations”.
With `O=C(OC[C@H]1O[C@@H](OC(=O)c2cc(O)c(O)c(OC(=O)c3cc(O)c(O)c(O)c3)c2)[C@H](OC(=O)c2cc(O)c(O)c(OC(=O)c3cc(O)c(O)c(O)c3)c2)[C@@H](OC(=O)c2cc(O)c(O)c(OC(=O)c3cc(O)c(O)c(O)c3)c2)[C@@H]1OC(=O)c1cc(O)c(O)c(OC(=O)c2cc(O)c(O)c(O)c2)c1)c1cc(O)c(O)c(OC(=O)c2cc(O)c(O)c(O)c2)c1` [tannic acid] the “release of EGCG or Tannic acid from PLGA microspheres” value [1] was ~65% and the “solubility in PEG 300 liquid” value [2] was 25 % w/w.
